Data from patent US9321742B2, “N1-cyclic amine-N5-substituted biguanide derivatives, methods of preparing the same and pharmaceutical composition comprising the same” (IMMUNOMET THERAPEUTICS INC., priority 2011, dated 2016).
Counter-ions that a name gives are not always drawn.

Experiments:
[1] = test system: AMPKα; test: Measurement of AMPK-activation effect (AMPKα Thr172 phosphorylation immunoassay in MCF7 cells); format: cell-based, human; conditions: 24 hours; for AMPK activation effect 10 uM (%) / AMPK activation effect 50 uM (%): relative to untreated cells
Procedure: MCF7 cells derived from human breast cancer cells (commercially available from the Korean Cell Line Bank) were used, and the AMPK (5′-AMP-activated protein kinase alpha)-activation effect of the biguanide derivative was confirmed using an AMPKα immunoassay kit (Invitrogen, Catalog No. KH00651).
MCF7 cells were cultured in a DMEM medium supplemented with 10% fetal bovine serum. Thereafter, the cultured MCF7 cells were put into a 6-well plate with approximately 5×10^5 cells per well and cultured in an incubator supplied with 5% CO2. Culture media were treated with the derivatives synthesized in the examples at contents of 5, 10 and 50 μM, and then cultured for 24 hours. Metformin hydrochloride was used as the control, and the culture media were treated with 0.05, 0.5, 1, 2, 5 and 10 mM metformin hydrochloride, and then tested in the same manner as described in the derivatives synthesized in the examples. Subsequently, the cells were lysed according to a method presented in the operation manual of the AMPKα immunoassay kit, and 20 μg of a cell lysate was then yielded through protein assay. Thereafter, the AMPK activation effect was obtained by determining the degree of phosphorylation of 172nd threonine residue (Thr172) of the AMPKα from the cell lysate according to the method presented in the operation manual of the AMPKα immunoassay kit. […] A curve graph showing AMPK activation according to the concentration of the treated compounds was plotted based on the obtained AMPKα activation results, the concentration (activation concentration 150, AC150) value of the compound whose AMPK activation reached 150% was calculated using a GraphPad Prism 5.0 program, and the degrees of AMPK activation were obtained when concentrations of the treated biguanide derivatives were 10 μM and 50 μM and the metformin hydrochloride was 50 μM.

[2] = test system: HCT116 cells; test: Measurement of effect of inhibiting cancer cell proliferation (MTT); format: cell-based; conditions: Homo sapiens; for inhibition at 100 µM: HCT-116, 100 uM, read-out: Cell Growth Inhibition (%) at 100 uM; for GI50: HCT-116, 48 hours
Excerpt: HCT116 cells derived from human colorectal cancer (commercially available from the Korean Cell Line Bank) were used, and the effect of inhibiting cancer cell proliferation of the biguanide derivative was confirmed by measuring the concentration value (cell growth inhibition concentration, GIC50) at which cell growth was inhibited by 50% using a 3-(4,5-dimethylthiazol-2-yl)-2,5-[…] bromide (MTT) reagent.
First, HCT116 cells were put on a 96-well plate and cultured in a DMEM medium containing 10% fetal bovine serum for 16 hours so that the cellcount in each well was approximately 5,000. Subsequently, to obtain the GIC50 value of each compound, culture media were treated with 100 μM, 25 μM, 6.25 μM, 1.56 μM or 0.39 μM of the compound, and then cultured for 48 hours. At this time, some of the compounds were treated with 200 μM instead of 100 μM. Metformin hydrochloride was used as the control, and the culture media were treated with 25, 12.5, 2.5, 0.5, 0.1 mM metformin hydrochloride, and then tested in the same manner as described in the derivatives synthesized in the examples. In order to determine whether the cells survived after treatment with the compound, MTT was added to the culture media which were then cultured for another 3 hours. Formed formazane crystals were dissolved using dimethyl sulfoxide (DMSO), and the absorbance of the resulting solution was measured at 560 nm. After the 48-hours culture, the ratio of the cell count cultured on a well plate not treated with the compound to the living cell count on a well plate treated with the compounds synthesized in the examples was indicated as cell viability (%) according to each treated concentration. A cell viability curve graph was plotted and the concentration (GIC50) value of the compound at which the growth was inhibited by 50% was calculated to confirm the effect of inhibition of cancer cell proliferation. Also, the cell growth viability (%) when the concentration of the treated biguanide derivative and the metformin hydrochloride as the control were 100 uM was shown.

| Compound | GI50 [2] | melting point | AMPK activation effect 10 uM (%) [1] | AMPK activation effect 50 uM (%) [1] | AC150 (concentration at which AMPK activation reached 150%) [1] | inhibition at 100 µM ([2]; 48 hours) | inhibition at 200 µM ([2]; HCT-116, 200 uM, 48 hours, read-out: Cell Growth Inhibition (%) at 200 uM) |
| --- | --- | --- | --- | --- | --- | --- | --- |
| Cl.N=C(NCc1ccc(Br)cc1)NC(=N)N1CCCC1 [Example 34, N1-pyrrolidine-N5-(4-bromo)benzyl biguanide hydrochloride] | 92.8 µM | 267 to 268 °C | 467% | 639% | 42.4 µM | 97.3% | – |
| Cl.N=C(NCc1cccc(F)c1)NC(=N)N1CCCCC1 [Example 29, N1-piperidine-N5-(3-fluoro)bezyl biguanide hydrochloride] | – | 171 to 172 °C | – | 131% | >50 µM | – | – |
| CN(C)C(=N)N=C(N)N [Metformin hydrochloride, reference compound] | 2850 µM | – | – | 130% | 188.3 µM | 1.8% | – |
| Cl.N=C(NCc1ccc(F)cc1)NC(=N)N1CCCCC1 [Example 30, N1-piperidine-N5-(4-fluoro)benzyl biguanide hydrochloride] | > 100 µM | 250 to 251 °C | 143% | 278% | 13.1 µM | 47% | – |
| Cl.N=C(NCc1ccc(Cl)cc1)NC(=N)N1CCCC1 [Example 31, N1-pyrrolidine-N5-(4-chloro)benzyl biguanide hydrochloride] | 17.6 µM | 250 to 251 °C | 304% | 776% | 2.3 µM | 65.9% | – |
| Cl.N=C(NC(=N)N1CCCC1)NC1CCCCCC1 [Example 17, N1-pyrrolidine-N5-cycloheptyl biguanide hydrochloride] | 41 µM | 265 to 266 °C | 149% | 612% | 7.9 µM | 60.8% | – |
| Cl.N=C(NCc1cccc(C(F)(F)F)c1)NC(=N)N1CCOCC1 [Example 36, N1-morpholine-N5-(3-trifluoromethyl)benzyl biguanide hydrochloride] | > 100 µM | 211 to 212 °C | 516% | 656% | >50 µM | 97.2% | – |
| Cl.N=C(NCCc1ccc(Cl)cc1)NC(=N)N1CCCCCC1 [Example 61, N1-azepane-N5-((4-chloro)phenethyl)biguanide hydrochloride] | 19.8 µM | 181 to 183 °C | 1130% | – | 0.5 µM | 94.3% | – |
| Cl.N=C(NCc1cccs1)NC(=N)N1CCCCC1 [Example 24, N1-piperidine-N5-(thiophene-2-ylmethyl)biguanide hydrochloride] | 93.2 µM | 220 to 221 °C | 64% | 112% | >50 µM | 51.7% | – |
| Cl.N=C(NC(=N)N1CCCCC1)NC1CCCCC1 [Example 16, N1-piperidine-N5-cyclohexyl biguanide hydrochloride] | > 100 µM | 214 to 215 °C | 167% | 486% | 8.0 µM | 49.1% | – |
| Cl.N=C(NCCc1ccccc1)NC(=N)N1CCCC1 [Example 57, N1-pyrrolidine-N5-(phenethyl)biguanide hydrochloride] | > 200 µM | 213 to 215 °C | – | 391% | 8.1 µM | – | 23.2% |
| Cl.N=C(NCc1cccnc1)NC(=N)N1CCCCC1 | – | 197 to 199 °C | – | – | – | – | – |
| CN1CCN(C(=N)NC(=N)NCc2ccc(OC(F)(F)F)cc2)CC1.Cl [Example 43, N1-(4-methyl)piperazine-N5-(4-trifluoromethoxy)benzyl biguanide hydrochloride] | > 100 µM | – | 669% | 854% | 6.4 µM | 97.7% | – |
| Cl.N=C(NCc1ccccc1)NC(=N)N1CCCCC1 | – | 156 to 158 °C | – | – | – | – | – |
| Cl.N=C(NCc1cccc2ccccc12)NC(=N)N1CCCCC1 [Example 25, N1-piperidine-N5-(naphthalene-1-yl)methyl biguanide hydrochloride] | 28 µM | – | – | 428% | 8.0 µM | 96.6% | – |

More lines, in order of falling GI50 [2], values ahead:

| GI50 [2] | melting point | Compound | AMPK activation effect 10 uM (%) [1] | AMPK activation effect 50 uM (%) [1] | AC150 (concentration at which AMPK activation reached 150%) [1] | inhibition at 100 µM ([2]; 48 hours) | inhibition at 200 µM ([2]; HCT-116, 200 uM, 48 hours, read-out: Cell Growth Inhibition (%) at 200 uM) |
| --- | --- | --- | --- | --- | --- | --- | --- |
| 16.2 µM | 268 to 269 °C | Cl.N=C(NCc1ccc(OC(F)(F)F)cc1)NC(=N)N1CCCCC1 [Example 42, N1-piperidine-N5-(4-trifluoromethoxy)benzyl biguanide hydrochloride] | 472% | 554% | 0.8 µM | 96.8% | – |
| 16.2 µM | – | Cl.N=C(NCc1ccc(C(F)(F)F)cc1)NC(=N)N1CCCCC1 [Example 39, N1-piperidine-N5-(4-trifluoromethyl)benzyl biguanide hydrochloride] | 476% | 615% | 0.9 µM | 78.9% | – |
| 13.4 µM | 233 to 235 °C | Cl.N=C(NCc1ccc(F)c(OC(F)(F)F)c1)NC(=N)N1CCCCC1 [Example 48, N1-piperidine-N5-(4-fluoro-3-trifluoromethoxy)benzyl biguanide hydrochloride] | 244% | – | 18.2 µM | 96.4% | – |
| 9.1 µM | 240 to 241 °C | Cl.N=C(NCc1ccc(Cl)cc1Cl)NC(=N)N1CCCCC1 [Example 53, N1-piperidine-N5-(2,4-dichloro)benzyl biguanide hydrochloride] | 238% | 831% | 3.5 µM | 63.7% | – |
| 8.2 µM | 259 to 261 °C | Cl.N=C(NCc1ccc(Cl)c(C(F)(F)F)c1)NC(=N)N1CCCCC1 [Example 45, N1-piperidine-N5-(4-chloro-3-trifluoromethyl)benzyl biguanide hydrochloride] | 162% | 232% | 1.7 µM | 96.9% | – |
| 7.4 µM | 254 to 256 °C | Cl.N=C(NCc1ccc(C(F)(F)F)c(Cl)c1)NC(=N)N1CCCCC1 [Example 47, N1-piperidine-N5-(3-chloro-4-trifluoromethyl)benzyl biguanide hydrochloride] | 433% | 384% | 4.4 µM | 100% | – |
| 5.7 µM | 240 to 241 °C | Cl.N=C(NCc1ccc(OC(F)(F)F)c(Cl)c1)NC(=N)N1CCCCC1 [Example 50, N1-piperidine-N5-(3-chloro-4-trifluoromethoxy)benzyl biguanide hydrochloride] | 259% | – | 8.8 µM | 97% | – |
